# Results: article PMC9126943, “ADAMTS4-specific MR probe to assess aortic aneurysms in vivo using synthetic peptide libraries” (Nature Communications, 2022)
# “Also recorded” adds a separate entry of the source. Where a SMILES comes first, the peptide text is derived from it. Bridges are numbered along the chain shown (N, C = ends). The star is where a group is joined. Cy5(nonsulfonated) = CN1C(=CC=CC=CC2=[N+](CCCCCC(=O)*)c3ccccc3C2(C)C)C(C)(C)c2ccccc21
# Target: T1, ADAMTS5 (Homo sapiens, UniProt Q9UNA0)
# T1 construct: His; purchased BioTeZ Berlin-Buch GmbH 30 400 502
# T1 sequence (Q9UNA0 262-930): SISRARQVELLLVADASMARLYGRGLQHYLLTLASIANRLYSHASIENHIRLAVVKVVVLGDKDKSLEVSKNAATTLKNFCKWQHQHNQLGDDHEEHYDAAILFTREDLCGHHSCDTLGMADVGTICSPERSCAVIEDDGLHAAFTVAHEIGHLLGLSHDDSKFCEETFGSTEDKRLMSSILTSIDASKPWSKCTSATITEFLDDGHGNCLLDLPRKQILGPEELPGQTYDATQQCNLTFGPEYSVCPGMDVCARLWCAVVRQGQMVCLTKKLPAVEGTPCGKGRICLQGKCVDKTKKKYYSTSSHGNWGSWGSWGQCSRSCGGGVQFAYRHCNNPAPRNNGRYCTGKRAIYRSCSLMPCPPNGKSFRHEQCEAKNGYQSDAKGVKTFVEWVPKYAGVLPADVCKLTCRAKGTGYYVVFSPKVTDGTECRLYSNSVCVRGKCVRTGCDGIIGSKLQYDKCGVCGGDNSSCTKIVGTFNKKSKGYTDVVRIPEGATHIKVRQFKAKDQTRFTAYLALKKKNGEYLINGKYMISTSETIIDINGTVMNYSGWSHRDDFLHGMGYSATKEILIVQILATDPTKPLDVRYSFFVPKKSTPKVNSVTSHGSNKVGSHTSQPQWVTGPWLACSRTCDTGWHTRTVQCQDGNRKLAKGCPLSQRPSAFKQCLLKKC
# Assay: MST instrument, ligand-dependent fluorescence change, Cy5-labeled peptide vs ADAMTS5
# Format: binding
# Details: Cy5-labeled peptide 3 nM, ADAMTS5 starting concentration 2.46 µM, n = 3
# Protocol: Microscale thermophoresis (MST) was performed on a Monolith Pico (NanoTemper, Munich, Germany). The Cy5-labeled peptides were diluted into the MST buffer (150 mM NaCl, 50 mM TRIS-HCl, 5 mM CaCl2, and Tween-20) to reach a dilution of 6 nM. ADAMTS4, ADAMTS5, and ADAMTS1 were directly used with the supplied concentration. For ADAMTS4, the starting concentration was 4.96 µM, while for ADAMTS1 it was 4.88 µM and for ADAMTS5 it was 2.46 µM. Since we saw a loss of binding after centrifugation, the use of protein concentrators were inappropriate. 20 µl of the protein solutions were transferred into a PCR tube. 10 µl of this first vial was transferred into a second vial and mixed by pipetting with 10 µl of the MST buffer. […] The capillaries were transferred into the Monolith tray and measured with 10% excitation power on the pico-red excitation on high MST power at 25 °C. […] We detected a ligand-dependent fluorescence change for some of the systems. We checked for ADAMTS4 and the ADAMTS4-specific-Cy5-labeled probe via a saturation test for specifying the ligand-dependent fluorescence change. […] The samples were heated at 95 °C for 5 min and measured in the MST. The fluorescence difference between the concentrations was afterward at the same level. Each measurement was repeated three times independently and the binding constant was calculated by merging all three measurements. […]
smiles,measurement,value
C[N+]1=C(C=CC=CC=C2N(CCCCCC(=O)NCCCC[C@H](NC(=O)CNC(=O)CNC(=O)[C@H](CO)NC(=O)CNC(=O)CNC(=O)[C@H](CO)NC(=O)[C@@H]3CSSC[C@H](N)C(=O)N[C@@H](CO)C(=O)N[C@@H](CCCNC(=N)N)C(=O)N[C@@H](CCCNC(=N)N)C(=O)NCC(=O)N3)C(=O)NCC(N)=O)c3ccccc3C2(C)C)C(C)(C)c2ccccc21 [Cy5-labeled probe] (H-CSRRGCSGGSGGK(Cy5(nonsulfonated))G-NH2; disulfide 1-6; N-terminus and C-terminus assumed),"binding to ADAMTS5, in words",determination of the binding constant is not possible; also recorded: plateau was not reached; also recorded: a ligand dependent fluorescence change occurs
